Reference: patent US9713605B2, “Ameliorative or preventive effect of Antrodia cinnamomea in arthritis, cartilage destruction, or chondrocyte death” (Simpson Biotech Co., Ltd., priority 2011, dated 2017)

Key:
[1] = test system: collagen antibody-induced arthritis (CAIA) in BALB/c mice; test: Footpad thickness change in acute stage of CAIA; assay type: in vivo; conditions: day 10; oral once daily day 0 to day 9; mean±SEM; arthritis group 1.0446±0.0369
Excerpt: (§1) Male BALB/cByJNarl (BALB/c) mice were purchased at age six weeks from National Laboratory Animal Center (Taiwan) and subsequently bred and maintained under specific pathogen-free conditions in the Laboratory Animal Center of National Defense Medical Center (Taipei, Taiwan).
(§2) An arthritogenic monoclonal antibody (mAb) cocktail and lipopolysaccharide (LPS) were purchased from Immuno-Biological Laboratories (Hamburg, Germany). Arthritis was induced by the method of Terato et al. (Terato et al., Induction of arthritis with monoclonal antibodies to collagen. J Immunol. 1992 Apr. 1; 148(7):2103-8), using an arthritogenic mAb cocktail that contained four mAbs (F10, A2, D8, and D1) in equal amounts and using LPS as adjuvant. Three clones (F10, A2, and D8) were of type IgG2a, and one clone (D1) was type IgG2b. To induce arthritis, each mouse was injected intravenously with 2 mg of anti-CII mAbs followed by an intraperitoneal injection of 50 μg (BALB/c background) LPS (Escherichia coli 0111:B4) three days later. Isotype IgG (anti-mouse IgG, 2 mg, Jackson Lab.) supplied with LPS and only LPS induction groups were applied in same condition.
(§3) Arthritis development was monitored in the four limbs using a macroscopic scoring system. Briefly, one point was given for each swollen or red toe; one point for each swollen joint (metatarsal-phalangeal joints, metacarpal-phalangeal joints, proximal interphalangeal joints, and distal interphalangeal joints); and five points for a swollen ankle (maximum score=15 per limb and 60 per mouse) (Nandakumar et al., Collagen type II (CII)-specific antibodies induce arthritis in the absence of T or B cells but the arthritis progression is enhanced by CII-reactive T cells. Arthritis Res. Ther. 6 (2004), R544-R550). The mice were examined on days 0, 3, 7, 10 and 14 after the mAb injection. The thickness of each paw was measured in a noncontact manner using a Simplified Geometry Measurement System (Advanced Design Research Technology Co., Ltd). Images of the paws of each mouse were recorded three times (Chia et al., A noncontact footpad thickness assay to evaluate rheumatoid disease. Rheumatol Int. 2010 February; 30(4):547-50). One trained researcher who was blinded to group treatments evaluated the image data independently.
(§4) Data were analyzed by the Mann-Whitney U test and were expressed as mean±SEM. A P value <0.05 was considered significant.
(§5) In each group, the subjects were given the sample once daily ([…]) since day 0 to day 9 via oral intake and the subjects was administrated before the antibody and LPS injection.

[2] = test system: collagen antibody-induced arthritis (CAIA) in BALB/c mice; test: Disease activity score (macroscopic scoring of four limbs) in acute stage of CAIA; assay type: in vivo; conditions: oral once daily; for disease activity score (maximum 60 per mouse): day 10, mean±SEM, arthritis group 53.71±2.763
Excerpt: as §1, §2, §3, §4, §5

[3] = test system: collagen antibody-induced arthritis (CAIA) in BALB/c mice; test: Histopathological arthritis score of ankle joints in CAIA; assay type: in vivo; conditions: ankle joint harvested on day 10; mean±SEM; arthritis group 4.178±0.2023
Excerpt: as §2
The ankle joints were fixed in 10% formalin, decalcified, trimmed, and embedded. Sections were prepared from the tissue blocks and stained with hematoxylin and eosin. Histopathological scoring was performed as described below. Ankle joints of arthritic mice were given arthritis scores of 0, 1, 2, 3, 4, and 5 to describe the arthritis according to the following criteria: 0, normal; 1, minimal infiltration of polymorphonuclear leukocytes in the periarticular area; 2, mild infiltration; 3, moderate infiltration; 4, marked infiltration; and 5, severe infiltration (Doherty, 2001. Risk factors for progression of knee osteoarthritis. Lancet 358:775-6). Three independent observers scored each slide, and the average score was used.
as §4, §5

IL-1β = test: Relative expression level of IL-1β mRNA in footpad (quantitative PCR) in CAIA; assay type: in vivo, mice; conditions: day 10, mean±SEM, arthritis group 41.13±6.465
Excerpt: as §2
Total RNA was isolated using the Trizol method. Footpad tissues were homogenized in Trizol lysis buffer followed by chloroform extraction (Life Technologies). The RNA was eluted with 20 μl of RNase-free water. All RNA was quantified by spectrophotometer, and the optical density (OD) 260/280 nm ratio was determined. For cDNA synthesis, 5 μg total RNA was reverse transcribed at 50° C. for 60 min using 200 units of Superscript III reverse transcriptase (Invitrogen). The primer sequence was as follows: IL1-β, forward primer (5′-[…]), reverse primer (5′-CTCGCAGCAGCACATCAAC); and GAPDH, forward primer (5′-[…]), reverse primer (5′-[…]). The SYBR Green master mix kit (Bio-Rad) was used for all reactions with real-time PCR. Briefly, PCR was performed as follows: 94° C. for 2 min followed by 40 cycles of denaturation; annealing; and extension at 94° C. for 15 s, 64° C. for 30 s, and 72° C. for 45 s; and final extension at 72° C. for 10 min. The PCR reaction was performed in triplicate for each sample for all the products and for the GAPDH control. Ratios for each product relative to GAPDH mRNA were calculated for each sample. The data presented are expressed as the fold-increase or fold-decrease in mRNA level. For all real-time PCR assays, the products were run out on a gel to confirm the presence of a single band.
as §4, §5

[4] = test system: cartilage destruction in ankle joints of arthritic mice; test: Histopathological cartilage destruction score of ankle joints in CAIA; assay type: in vivo; conditions: ankle joint harvested on day 10; mean±SD; arthritis group 2.063±0.776
Excerpt: as §2
The ankle joints were fixed in 10% formalin, decalcified, trimmed, and embedded. Sections were prepared from the tissue blocks and stained with hematoxylin and eosin. Histopathological scoring was performed as described below. […] Two independent observers scored each slide, and the average score was used.
(§6) Data were analyzed by the t test and are expressed as mean±SD. […]

[5] = test system: chondrocyte death in ankle joints of arthritic mice; test: Histopathological chondrocyte death score of ankle joints in CAIA; assay type: in vivo; conditions: ankle joint harvested on day 10; mean±SD; arthritis group 1.929±0.450
Excerpt: as §2, with “Isotype IgG (anti-mouse IgG, 2 mg, Jackson Lab.) supplied with LPS and only LPS induction groups were applied in same condition.” left out
Ankle joints of arthritic mice were given chondrocyte death scores of 0, 1, 2, and 3 to describe the chondrocyte death according to the following criteria: 0, normal (FIG. 7A); 1, mild chondrocyte death (around less than ⅓ chondrocyte death in cartilage of all sections, FIGS. 7B, 7C); 2, moderate chondrocyte death (between ⅓ to ⅔ area chondrocyte death in the cartilage, FIG. 7D); 3, severe chondrocyte death (more than ⅔ chondrocyte death in the cartilage, FIG. 7E). Two independent observers scored each slide, and the average score was used.
as §6

## CC(C)=CCOc1ccc([C@H]2C(=O)N(O)C(=O)[C@@H]2CC(C)C)cc1 (relative stereo) [D group, 3R*,4S*-1-hydroxy-3-isobutyl-4-[4-(3-methyl-2-butenyloxy)phenyl]pyrrolidine-2,5-dione]
[1]
  footpad thickness (average increase compared to baseline): 0.729±0.114 mm
[2]; day 7
  disease activity score, difference versus arthritis group: significant difference
[2]
  disease activity score (maximum 60 per mouse): 39.687±5.238
[3]
  arthritis score (histopathological, 0-5): 3.458±0.559
IL-1β
  relative expression levels of IL-1β (relative to GAPDH mRNA): 10.141±2.765
[4]
  cartilage destruction score (0-3): 1.167±0.144
[5]
  chondrocyte death score (0-3): 1.042±0.439

## CC(C)=CCOc1ccc(C2=C(CC(C)C)C(=O)N(O)C2=O)cc1 [C group, 3-isobutyl-4-[4-(3-methyl-2-butenyloxy)phenyl]-1H-pyrrol-1-ol-2,5-dione]
[1]
  footpad thickness (average increase compared to baseline): 0.8605±0.098 mm
[2]
  disease activity score (maximum 60 per mouse): 47.718±3.581
[3]
  arthritis score (histopathological, 0-5): 3.25±0.421
IL-1β
  relative expression levels of IL-1β (relative to GAPDH mRNA): 20.714±4.751
[4]
  cartilage destruction score (0-3): 1.000±0.467
[5]
  chondrocyte death score (0-3): 0.58±0.555

## CC(C)=CCOc1ccc(C2=C(CC(C)C)C(=O)NC2=O)cc1 [B group, 3-isobutyl-4-[4-(3-methyl-2-butenyloxy)phenyl]-1H-pyrrol-2,5-dione]
[1]
  footpad thickness (average increase compared to baseline): 0.837±0.177 mm
[2]
  disease activity score (maximum 60 per mouse): 45.58±4.818
IL-1β
  relative expression levels of IL-1β (relative to GAPDH mRNA): 16.873±4.82

## CC(C)=CCOc1ccc(C2=C(CC(C)C)C(=O)OC2=O)cc1 [A group, 3-isobutyl-4-[4-(3-methyl-2-butenyloxy)phenyl]furan-2,5-dione]
[1]
  footpad thickness (average increase compared to baseline): 0.840±0.139 mm
[2]
  disease activity score (maximum 60 per mouse): 46.0±2.537
[3]
  arthritis score (histopathological, 0-5): 2.093±0.541
IL-1β
  relative expression levels of IL-1β (relative to GAPDH mRNA): 39.61±3.849
